Assay [1] deals with T1, AEA-DA lipid probe targets in Neuro2a cells (Mus musculus, UniProt Q99JH8).
T1 sequence (Q99JH8 1-212): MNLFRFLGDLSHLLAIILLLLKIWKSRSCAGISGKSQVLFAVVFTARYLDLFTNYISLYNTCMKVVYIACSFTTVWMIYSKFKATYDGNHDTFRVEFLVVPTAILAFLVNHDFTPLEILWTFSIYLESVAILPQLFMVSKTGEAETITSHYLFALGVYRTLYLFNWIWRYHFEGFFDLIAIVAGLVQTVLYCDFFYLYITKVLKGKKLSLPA

Assay [2] deals with T2, AEA-DA lipid probe targets in Neuro2a cells (Mus musculus, UniProt P16014).
T2 sequence (P16014 21-677): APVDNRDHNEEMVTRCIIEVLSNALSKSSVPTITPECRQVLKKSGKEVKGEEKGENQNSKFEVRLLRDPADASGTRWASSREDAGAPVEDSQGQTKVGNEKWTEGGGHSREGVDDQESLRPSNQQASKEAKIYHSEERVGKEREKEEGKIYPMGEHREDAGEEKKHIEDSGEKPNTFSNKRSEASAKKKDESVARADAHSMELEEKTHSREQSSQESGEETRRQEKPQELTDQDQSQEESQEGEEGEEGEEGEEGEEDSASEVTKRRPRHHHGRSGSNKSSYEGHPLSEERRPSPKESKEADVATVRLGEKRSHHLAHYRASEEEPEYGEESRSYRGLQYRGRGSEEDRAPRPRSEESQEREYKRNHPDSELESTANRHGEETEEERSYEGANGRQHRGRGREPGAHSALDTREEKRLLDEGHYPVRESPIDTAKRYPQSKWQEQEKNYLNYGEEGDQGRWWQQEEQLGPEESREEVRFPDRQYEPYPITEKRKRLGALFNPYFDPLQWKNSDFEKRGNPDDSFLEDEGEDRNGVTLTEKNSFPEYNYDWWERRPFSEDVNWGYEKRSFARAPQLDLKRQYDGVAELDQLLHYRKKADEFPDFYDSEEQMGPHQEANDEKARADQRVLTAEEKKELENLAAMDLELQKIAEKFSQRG

Assay [3] has as its target T3, AEA-DA lipid probe targets in Neuro2a cells (Mus musculus, UniProt Q8BP40).
T3 sequence (Q8BP40 26-418): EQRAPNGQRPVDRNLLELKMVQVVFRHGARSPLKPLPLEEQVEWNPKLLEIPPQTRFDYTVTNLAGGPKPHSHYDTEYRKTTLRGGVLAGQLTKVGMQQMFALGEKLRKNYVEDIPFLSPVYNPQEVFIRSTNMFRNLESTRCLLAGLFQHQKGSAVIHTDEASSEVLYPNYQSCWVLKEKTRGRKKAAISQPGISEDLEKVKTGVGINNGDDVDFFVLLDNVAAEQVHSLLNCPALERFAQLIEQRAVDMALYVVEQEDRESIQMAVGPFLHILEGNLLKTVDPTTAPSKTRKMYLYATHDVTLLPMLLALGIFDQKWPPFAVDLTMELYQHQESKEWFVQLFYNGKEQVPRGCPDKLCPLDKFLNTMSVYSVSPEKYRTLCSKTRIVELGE

The target in assay [4] is T4, AEA-DA lipid probe targets in Neuro2a cells (Mus musculus, UniProt P10649).
T4 sequence (P10649 1-218): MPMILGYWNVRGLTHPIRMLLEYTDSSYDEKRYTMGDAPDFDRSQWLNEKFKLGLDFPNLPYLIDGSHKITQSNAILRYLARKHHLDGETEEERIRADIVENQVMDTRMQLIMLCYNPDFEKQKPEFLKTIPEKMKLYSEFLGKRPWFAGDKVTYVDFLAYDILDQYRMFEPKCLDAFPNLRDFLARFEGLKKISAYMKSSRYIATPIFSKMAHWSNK

Assay [5] deals with T5, AEA-DA lipid probe targets in Neuro2a cells (Mus musculus, UniProt Q8BJ71).
T5 sequence (Q8BJ71 1-819): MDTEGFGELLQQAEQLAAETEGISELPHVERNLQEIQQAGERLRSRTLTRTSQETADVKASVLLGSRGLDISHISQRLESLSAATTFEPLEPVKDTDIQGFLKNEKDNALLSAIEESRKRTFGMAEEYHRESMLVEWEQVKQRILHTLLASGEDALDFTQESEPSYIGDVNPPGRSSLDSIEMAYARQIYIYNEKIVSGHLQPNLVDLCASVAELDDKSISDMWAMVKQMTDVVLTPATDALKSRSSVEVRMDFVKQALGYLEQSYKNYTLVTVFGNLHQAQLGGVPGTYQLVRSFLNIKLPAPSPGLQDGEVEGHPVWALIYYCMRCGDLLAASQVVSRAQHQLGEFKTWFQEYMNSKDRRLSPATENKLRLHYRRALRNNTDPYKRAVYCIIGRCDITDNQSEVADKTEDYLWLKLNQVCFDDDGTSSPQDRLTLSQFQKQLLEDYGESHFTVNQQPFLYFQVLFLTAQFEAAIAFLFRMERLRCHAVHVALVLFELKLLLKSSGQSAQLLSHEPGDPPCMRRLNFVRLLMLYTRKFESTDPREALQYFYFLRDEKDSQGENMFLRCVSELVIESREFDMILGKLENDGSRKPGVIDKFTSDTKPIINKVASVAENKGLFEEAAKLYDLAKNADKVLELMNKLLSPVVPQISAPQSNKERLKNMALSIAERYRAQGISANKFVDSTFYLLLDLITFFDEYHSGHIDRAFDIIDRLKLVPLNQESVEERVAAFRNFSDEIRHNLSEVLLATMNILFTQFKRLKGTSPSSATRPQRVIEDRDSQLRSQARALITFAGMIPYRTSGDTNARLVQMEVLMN

The target of assay [6] is AEA-DA lipid probe targets in Neuro2a cells (Mus musculus, UniProt Q8BWM0).

Where two headings read alike, the source gives them in different places.

Sequence of AEA-DA lipid probe targets in Neuro2a cells (Mus musculus, UniProt Q8BWM0) (Q8BWM0 whole entry): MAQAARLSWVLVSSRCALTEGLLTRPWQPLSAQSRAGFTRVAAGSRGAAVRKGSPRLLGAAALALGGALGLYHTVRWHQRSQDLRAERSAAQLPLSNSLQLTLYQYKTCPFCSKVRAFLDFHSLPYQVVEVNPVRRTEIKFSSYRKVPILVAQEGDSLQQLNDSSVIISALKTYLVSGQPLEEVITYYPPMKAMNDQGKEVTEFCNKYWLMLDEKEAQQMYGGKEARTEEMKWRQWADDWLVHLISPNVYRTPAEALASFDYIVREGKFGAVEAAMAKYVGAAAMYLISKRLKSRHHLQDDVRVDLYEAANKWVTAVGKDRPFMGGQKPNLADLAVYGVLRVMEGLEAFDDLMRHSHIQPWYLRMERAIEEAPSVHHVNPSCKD

`C=CCN(C)CCCCCCOc1ccc(C(=O)c2ccc(Br)cc2)c(F)c1` [Ro 48-8071, reference compound]: the “SILAC ratio Kdelr1” value in assay [1] (competitor 25 μM) is reported as 1.0. Further, the “SILAC ratio Chgb” value in assay [2] (competitor 25 μM) turned out to be 0.7. In addition, the “SILAC ratio, Acp6” value in assay [3] (competitor 25 μM) was 0.9. Besides, the “SILAC ratio, Gstm1” value in assay [4] (competitor 25 μM) stood at 1.4. In addition, the “SILAC ratio Nup93” value in assay [5] (competitor 25 μM) came out at 0.9. Besides, in assay [6] (competitor 25 μM), the “SILAC ratio, Ptges2” value is 1.3.
On to `CN1CCN(C(=O)c2[nH]c3ccc([N+](=O)[O-])cc3c2-c2ccccc2)CC1` [MJN228, (4-Methylpiperazin-1-yl)(5-nitro-3-phenyl-1H-indol-2-yl)methanone], for which the “SILAC ratio Kdelr1” value in assay [1] (competitor 10 μM) came out at 1.1; in assay [1] (competitor 25 μM), 1.2; in assay [1] (competitor 50 μM), 1.5; in assay [1] (competitor 100 μM), 1.5. Moreover, the “SILAC ratio Chgb” value in assay [2] (competitor 10 μM) is reported as 1.2; in assay [2] (competitor 25 μM), 0.9; in assay [2] (competitor 50 μM), 0.4; in assay [2] (competitor 100 μM), 0.4. The “SILAC ratio, Acp6” value in assay [3] (competitor 10 μM) stood at 1.5; in assay [3] (competitor 25 μM) it was 1.5; in assay [3] (competitor 50 μM), 1.8; in assay [3] (competitor 100 μM), 2.3. Moreover, the “SILAC ratio, Gstm1” value in assay [4] (competitor 10 μM) is given as 1.7; in assay [4] (competitor 25 μM), 1.7; in assay [4] (competitor 50 μM), 2.1; in assay [4] (competitor 100 μM), 2.6. The “SILAC ratio Nup93” value in assay [5] (competitor 10 μM) was determined as 0.9; in assay [5] (competitor 25 μM), 1.1; in assay [5] (competitor 50 μM), 1.0; in assay [5] (competitor 100 μM), 1.1. Besides, the “SILAC ratio, Ptges2” value is given as 1.3 in assay [6] (competitor 10 μM), 1.4 in assay [6] (competitor 25 μM) and 2.3 in assay [6] (competitor 100 μM).
Take `CCCCC/C=C\C/C=C\C/C=C\C/C=C\CCCC(=O)NCCO` [AEA, anandamide, reference compound]: the “SILAC ratio Kdelr1” value in assay [1] (competitor 200 μM) is 1.2. For the same molecule, the “SILAC ratio Chgb” value in assay [2] (competitor 200 μM) came to 1.2. For the same molecule, the “SILAC ratio, Acp6” value in assay [3] (competitor 200 μM) is 2.5. Also, the “SILAC ratio, Gstm1” value in assay [4] (competitor 200 μM) was determined as 2.3. Also, the “SILAC ratio Nup93” value in assay [5] (competitor 200 μM) came to 1.2. In addition, the “SILAC ratio, Ptges2” value in assay [6] (competitor 200 μM) was determined as 2.1.
For the molecule `CN1CCN(C(=O)c2c(-c3ccccc3)c3cc([N+](=O)[O-])ccc3n2C)CC1` [KML110, (1-Methyl-5-nitro-3-phenyl-1H-indol-2-yl)(4-methylpiperazin-1-yl)methanone], the “SILAC ratio Kdelr1” value in assay [1] (competitor 25 μM) was determined as 1.1. The “SILAC ratio Chgb” value in assay [2] (competitor 25 μM) was 1.1. Further, the “SILAC ratio, Acp6” value in assay [3] (competitor 25 μM) is listed as 1.6. Also, in assay [4] (competitor 25 μM), the “SILAC ratio, Gstm1” value came out at 2.2. Further, the “SILAC ratio Nup93” value in assay [5] (competitor 25 μM) is given as 1.4. In assay [6] (competitor 25 μM), the “SILAC ratio, Ptges2” value is reported as 1.8.
Turning to `O=C(/C=C/c1cccnc1)NCCCCC1CCN(C(=O)c2ccccc2)CC1` [FK-866, reference compound], the “SILAC ratio Kdelr1” value in assay [1] (competitor 25 μM) is 1.1. Also, the “SILAC ratio Chgb” value in assay [2] (competitor 25 μM) was 0.9. Further, in assay [3] (competitor 25 μM), the “SILAC ratio, Acp6” value was found to be 1.2. Moreover, the “SILAC ratio, Gstm1” value in assay [4] (competitor 25 μM) is given as 1.5. The “SILAC ratio Nup93” value in assay [5] (competitor 25 μM) amounted to 1.2. Besides, the “SILAC ratio, Ptges2” value in assay [6] (competitor 25 μM) worked out at 1.4.

(Values after patent publication US10168342B2, “Lipid probes and uses thereof” (THE SCRIPPS RESEARCH INSTITUTE, priority 2015, dated 2019).)
